Columns and labels:
[1] = molecular target: T1, M1 muscarinic receptor (Homo sapiens, UniProt P11229); experiment: Functional mobilization of intracellular calcium (FLIPR) in M1-CHO cells; type: cell-based; conditions: M1 receptor, calcium mobilization; for Emax: read-out: M1 Efficacy
T1 construct: expressed in transfected cells; host or cells: CHO (M1-CHO)
T1 sequence (P11229 1-460): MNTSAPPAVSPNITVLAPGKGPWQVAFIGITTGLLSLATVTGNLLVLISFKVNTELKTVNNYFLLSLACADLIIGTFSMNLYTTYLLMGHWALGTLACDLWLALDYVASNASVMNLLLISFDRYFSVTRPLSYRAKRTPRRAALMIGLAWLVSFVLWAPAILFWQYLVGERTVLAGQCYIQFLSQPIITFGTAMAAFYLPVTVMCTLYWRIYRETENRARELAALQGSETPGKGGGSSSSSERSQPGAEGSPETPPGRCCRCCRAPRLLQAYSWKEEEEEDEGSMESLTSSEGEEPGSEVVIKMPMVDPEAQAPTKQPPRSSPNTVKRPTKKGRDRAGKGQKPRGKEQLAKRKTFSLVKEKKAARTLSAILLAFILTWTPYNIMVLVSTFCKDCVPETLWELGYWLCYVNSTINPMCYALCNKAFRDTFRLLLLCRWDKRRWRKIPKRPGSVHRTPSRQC
How it was run: (§1)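 Intracellular calcium rise is measured by FLIPR fluorescence over 60 sec in CHO cells carrying human M1 or M4 receptors. Compounds are tested alone as agonists, or pre-incubated 15 min (or co-applied) ahead of carbachol at its EC80 to detect inhibition.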

[2] = molecular target: T2, M4 muscarinic receptor (Homo sapiens, UniProt P08173); experiment: Functional mobilization of intracellular calcium (FLIPR) in M4-CHO cells; type: cell-based; conditions: M4 receptor, calcium mobilization; for Emax: read-out: M4 Efficacy
T2 construct: expressed in transfected cells; host or cells: CHO (M4-CHO)
T2 sequence (P08173 1-479): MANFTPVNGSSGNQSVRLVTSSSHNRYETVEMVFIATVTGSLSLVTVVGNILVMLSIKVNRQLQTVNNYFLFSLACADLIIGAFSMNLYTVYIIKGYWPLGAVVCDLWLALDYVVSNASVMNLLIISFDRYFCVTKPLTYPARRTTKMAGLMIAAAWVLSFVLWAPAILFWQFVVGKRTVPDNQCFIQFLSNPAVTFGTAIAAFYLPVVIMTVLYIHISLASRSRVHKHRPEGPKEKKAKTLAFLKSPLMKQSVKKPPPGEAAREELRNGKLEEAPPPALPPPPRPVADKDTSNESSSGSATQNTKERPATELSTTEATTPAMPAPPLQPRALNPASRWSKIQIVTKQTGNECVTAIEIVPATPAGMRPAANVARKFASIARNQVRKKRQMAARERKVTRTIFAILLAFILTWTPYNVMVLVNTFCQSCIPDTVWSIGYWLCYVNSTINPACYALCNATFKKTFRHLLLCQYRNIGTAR
How it was run: as §1

| Compound | M1 Activity [1] | Emax [1] | M4 Activity [2] | Emax [2] |
| --- | --- | --- | --- | --- |
| CN(C)C(=O)N1CC2(CCN(C3CC4CCC(C3)N4C(=O)O[C@@H]3CCOC3)CC2)c2cc(F)ccc21 (stereo partly drawn) [compound 188] | x (activity was measured to be greater than 1.0 μM) | < 65% | x (activity was measured to be greater than 1.0 μM) | 65 to 85% |
| CCOC(=O)N1C2CCC1CC(N1CCC3(CC1)CN(C(=O)c1cc(C)nn1C(C)(C)C)c1ccc(F)cc13)C2 (stereo not drawn) [compound 189] | xxx (activity was measured to be less than 0.1 μM) | 65 to 85% | x (activity was measured to be greater than 1.0 μM) | 65 to 85% |
| CC(=O)N(C)[C@H]1CC2(CCN(C[C@H]3C[C@H]4CC[C@H]3C4)CC2)c2ccccc21 [compound 190] | x (activity was measured to be greater than 1.0 μM) | > 85% | x (activity was measured to be greater than 1.0 μM) | 65 to 85% |
| CCOC(=O)N1CCC(N2CCC3(CC2)C(=O)Nc2ccccc23)CC1 [compound 191] | xxx (activity was measured to be less than 0.1 μM) | 65 to 85% | x (activity was measured to be greater than 1.0 μM) | 65 to 85% |
| COC(=O)N1CC2(CCN(C3CC4CCC(C3)N4C(=O)O[C@@H]3CCOC3)CC2)c2cc(F)ccc21 (stereo partly drawn) [compound 192] | xxx (activity was measured to be less than 0.1 μM) | 65 to 85% | x (activity was measured to be greater than 1.0 μM) | 65 to 85% |
| CCOC(=O)N1CCC(N2CCC3(CC2)CN(C(C)=O)c2ccc(-c4ccc(OC)cc4)cc23)CC1 [compound 193] | x (activity was measured to be greater than 1.0 μM) | < 65% | x (activity was measured to be greater than 1.0 μM) | < 65% |
| CCOC(=O)N1CCC(N2CCC3(CC2)CN(C(=O)CC(C)(C)C)c2ccc(F)cc23)CC1 [compound 194] | xxx (activity was measured to be less than 0.1 μM) | > 85% | x (activity was measured to be greater than 1.0 μM) | 65 to 85% |
| COCCOC(=O)N1CC2(CCN(C3CC4CCC(C3)N4C(=O)OC3CCC3)CC2)c2cc(F)ccc21 (stereo not drawn) [compound 195] | xx (activity was measured to be between 0.1 μM and 1.0 μM) | < 65% | x (activity was measured to be greater than 1.0 μM) | < 65% |
| CC(=O)N[C@H]1CC2(CCN(C3CCCCC3)CC2)c2ccccc21 [compound 196] | xxx (activity was measured to be less than 0.1 μM) | 65 to 85% | x (activity was measured to be greater than 1.0 μM) | < 65% |
| CCOC(=O)N1C2CCC1CC(N1CCC3(CC1)CN(C(=O)Nc1ccc(F)cc1)c1ccc(F)cc13)C2 (stereo not drawn) [compound 197] | xx (activity was measured to be between 0.1 μM and 1.0 μM) | < 65% | x (activity was measured to be greater than 1.0 μM) | < 65% |
| O=C(O[C@@H]1CCOC1)N1CC2(CCN(C3CC4CCC(C3)N4C(=O)O[C@H]3CCOC3)CC2)c2cc(F)ccc21 (stereo partly drawn) [compound 198] | xx (activity was measured to be between 0.1 μM and 1.0 μM) | 65 to 85% | x (activity was measured to be greater than 1.0 μM) | < 65% |
| CCOC(=O)N1C2CCC1CC(N1CCC3(CC1)C(=O)Nc1ccccc13)C2 (stereo not drawn) [compound 199] | xx (activity was measured to be between 0.1 μM and 1.0 μM) | 65 to 85% | x (activity was measured to be greater than 1.0 μM) | < 65% |
| CC=CCOC(=O)N1C2CCC1CC(N1CCC3(CC1)CN(C(=O)N(C)C)c1ccc(F)cc13)C2 (stereo not drawn) [compound 200] | xx (activity was measured to be between 0.1 μM and 1.0 μM) | 65 to 85% | x (activity was measured to be greater than 1.0 μM) | < 65% |
| CC(=O)N1CC2(CCN(CC3CCN(C(=O)OC(C)C)CC3)CC2)c2cc(F)ccc21 [compound 202] | xx (activity was measured to be between 0.1 μM and 1.0 μM) | 65 to 85% | x (activity was measured to be greater than 1.0 μM) | < 65% |
| CN(C)C(=O)N1C2CCC1CC(N1CCC3(CC1)COc1ccc(F)cc13)C2 (stereo not drawn) [compound 203] | xxx (activity was measured to be less than 0.1 μM) | 65 to 85% | xx (activity was measured to be between 0.1 μM and 1.0 μM) | < 65% |
| Fc1ccc2c(c1)C1(CCN([C@H]3C[C@@H]4CC[C@@H]3C4)CC1)CO2 [compound 204] | xxx (activity was measured to be less than 0.1 μM) | 65 to 85% | x (activity was measured to be greater than 1.0 μM) | < 65% |
| CCOC(=O)N1C2CCC1CC(N1CCC3(CC1)CN(C(C)=O)c1ccccc13)C2 (stereo not drawn) [compound 205] | x (activity was measured to be greater than 1.0 μM) | < 65% | x (activity was measured to be greater than 1.0 μM) | < 65% |
| CC(=O)N[C@H]1CC2(CCN(C3CCOCC3)CC2)c2ccccc21 [compound 206] | xxx (activity was measured to be less than 0.1 μM) | 65 to 85% | x (activity was measured to be greater than 1.0 μM) | < 65% |
| Fc1ccc2c(c1)C1(CCN(C[C@H]3C[C@H]4CC[C@H]3C4)CC1)CO2 [compound 207] | xx (activity was measured to be between 0.1 μM and 1.0 μM) | 65 to 85% | x (activity was measured to be greater than 1.0 μM) | < 65% |
| Cc1ccc2c(c1)C1(CCN(C3CC4CCC3C4)CC1)CN2C(=O)c1cc(C)on1 (stereo not drawn) [compound 208] | xx (activity was measured to be between 0.1 μM and 1.0 μM) | < 65% | x (activity was measured to be greater than 1.0 μM) | < 65% |
| CN(C)C(=O)N1CC2(CCN(C3CCN(C(=O)O[C@@H]4CCOC4)CC3)CC2)c2cc(F)ccc21 [compound 209] | xx (activity was measured to be between 0.1 μM and 1.0 μM) | > 85% | x (activity was measured to be greater than 1.0 μM) | < 65% |
| CC(=O)N1CC2(CCN(C3CCCCCC3)CC2)c2cc(F)ccc21 [compound 210] | xx (activity was measured to be between 0.1 μM and 1.0 μM) | 65 to 85% | x (activity was measured to be greater than 1.0 μM) | < 65% |
| Cc1ccc2c(c1)C1(CCN(C3CC4CCC3C4)CC1)CN2C(=O)c1cc(C)n(C)n1 (stereo not drawn) [compound 211] | x (activity was measured to be greater than 1.0 μM) | 65 to 85% | x (activity was measured to be greater than 1.0 μM) | < 65% |
| O=C(O[C@H]1CCOC1)N1C2CCC1CC(N1CCC3(CC1)COc1ccc(F)cc13)C2 (stereo partly drawn) [compound 212] | x (activity was measured to be greater than 1.0 μM) | < 65% | x (activity was measured to be greater than 1.0 μM) | < 65% |

From patent US7786141B2 (Vertex Pharmaceuticals Incorporated, priority 2004, dated 2010)
